# Data published in article PMC10435442, “Developing multitarget coumarin based anti-breast cancer agents: synthesis and molecular modeling study” (Scientific Reports, 2023).
# “And” between values parts separate entries of the source, which are not always exact repeats. Equal values may be shown once. Read-outs that look alike come from different tables or passages of the source. Marks after values point to notes of the source that are not given here.
# Assays:
# in vitro = conditions: human, MCF-10A cells (nonmalignant breast)
# MCF-7 [1] = assay: MTT cytotoxicity assay, MCF-7; conditions: for IC50: Homo sapiens
# MDA-MB-231 [2] = assay: MTT cytotoxicity assay, MDA-MB-231; conditions: for IC50: Homo sapiens; for % viability: MDA
# MCF-10A = assay: MTT cytotoxicity assay, nonmalignant MCF-10A; conditions: read-out: MCF-10A IC50; MTT, nonmalignant MCF-10A;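 also: MTT assay with absorbance read at 570 nm after 48 h exposure of cells to serial compound concentrations at 37 °C, testing selectivity against nonmalignant versus cancer cells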
# EGFR = EGFR (Homo sapiens, UniProt P00533); assay: In vitro EGFR enzyme inhibition assay (ELISA); conditions: for EGFR %inh: lab report 01-11-2021
# EGFR, sequence (P00533 25-1210): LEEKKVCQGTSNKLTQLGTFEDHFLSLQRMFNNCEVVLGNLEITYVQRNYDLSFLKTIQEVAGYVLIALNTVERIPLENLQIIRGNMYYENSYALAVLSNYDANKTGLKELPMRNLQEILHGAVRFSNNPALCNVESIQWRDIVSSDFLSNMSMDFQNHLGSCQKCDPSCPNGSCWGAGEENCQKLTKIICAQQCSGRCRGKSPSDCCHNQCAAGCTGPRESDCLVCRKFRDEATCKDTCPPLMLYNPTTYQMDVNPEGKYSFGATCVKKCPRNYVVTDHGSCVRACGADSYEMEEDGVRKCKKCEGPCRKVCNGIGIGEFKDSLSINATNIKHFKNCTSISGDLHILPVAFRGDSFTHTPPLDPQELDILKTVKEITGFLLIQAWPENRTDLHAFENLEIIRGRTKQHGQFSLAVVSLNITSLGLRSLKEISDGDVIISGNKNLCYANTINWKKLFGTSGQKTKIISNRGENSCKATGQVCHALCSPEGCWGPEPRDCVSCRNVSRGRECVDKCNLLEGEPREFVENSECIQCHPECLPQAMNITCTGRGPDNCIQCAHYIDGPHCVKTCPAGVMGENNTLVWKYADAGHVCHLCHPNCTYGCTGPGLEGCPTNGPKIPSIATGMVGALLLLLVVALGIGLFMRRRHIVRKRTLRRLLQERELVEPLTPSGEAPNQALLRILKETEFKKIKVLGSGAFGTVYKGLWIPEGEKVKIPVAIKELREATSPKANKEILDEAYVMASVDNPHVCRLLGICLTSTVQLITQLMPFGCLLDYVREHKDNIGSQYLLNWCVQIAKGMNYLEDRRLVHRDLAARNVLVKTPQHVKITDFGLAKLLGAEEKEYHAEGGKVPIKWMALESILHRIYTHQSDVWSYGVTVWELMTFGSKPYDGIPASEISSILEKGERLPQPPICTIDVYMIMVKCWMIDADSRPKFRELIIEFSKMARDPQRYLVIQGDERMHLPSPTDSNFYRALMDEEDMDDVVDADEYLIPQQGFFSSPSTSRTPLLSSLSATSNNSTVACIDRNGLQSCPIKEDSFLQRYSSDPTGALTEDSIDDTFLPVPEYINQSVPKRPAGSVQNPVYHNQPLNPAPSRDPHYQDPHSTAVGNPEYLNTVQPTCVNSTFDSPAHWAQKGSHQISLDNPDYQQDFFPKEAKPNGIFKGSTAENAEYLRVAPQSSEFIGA
# aromatase (ARO) = target: T1, aromatase (ARO) (Homo sapiens, UniProt P11511); assay: In vitro aromatase (ARO) enzyme inhibition assay (ELISA)
# T1 sequence (P11511 1-503): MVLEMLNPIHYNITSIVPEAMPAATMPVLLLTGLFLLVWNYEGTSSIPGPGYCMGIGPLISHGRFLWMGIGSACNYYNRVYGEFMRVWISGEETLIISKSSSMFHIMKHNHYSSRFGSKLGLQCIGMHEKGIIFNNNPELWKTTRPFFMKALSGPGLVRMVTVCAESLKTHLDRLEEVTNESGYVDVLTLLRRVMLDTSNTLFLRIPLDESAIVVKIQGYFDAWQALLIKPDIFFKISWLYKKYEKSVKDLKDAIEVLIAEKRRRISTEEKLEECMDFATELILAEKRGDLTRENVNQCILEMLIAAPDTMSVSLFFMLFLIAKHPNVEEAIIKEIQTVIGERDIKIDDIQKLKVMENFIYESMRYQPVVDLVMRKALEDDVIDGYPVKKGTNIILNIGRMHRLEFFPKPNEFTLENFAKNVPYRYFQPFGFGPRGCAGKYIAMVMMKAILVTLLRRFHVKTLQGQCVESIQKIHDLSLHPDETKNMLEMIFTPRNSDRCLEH
# MCF-7 [3] = assay: DNA flow cytometric cell cycle analysis, MCF-7; assay type: cell-based, human
# MCF-7 [4] = assay: Annexin V-FITC/PI dual staining apoptosis assay, MCF-7; assay type: cell-based, human
# Bax = Bax level (ELISA) in treated cells; assay type: cell-based, human
# Bcl-2 = Bcl-2 level (ELISA) in treated cells; assay type: cell-based, human
# Caspase-9 = Caspase-9 level (ELISA) in treated cells; assay type: cell-based, human
# MDA-MB-231 [5] = assay: DNA flow cytometric cell cycle analysis, MDA-MB-231; assay type: cell-based, human
# MDA-MB-231 [6] = assay: Annexin V-FITC/PI dual staining apoptosis assay, MDA-MB-231; assay type: cell-based, human; conditions: MDA-MB-231
# ARO = tested on: ARO; design: method as in PMID 21341743, PMID 28512028, PMID 15358790, PMID 24607878, PMID 30360952; conditions: reported coumarin derivatives, Fig. 1b; read-out: ARO inhibitior IC50; cited from earlier work
# [7] = MCF7, read-out: cytotoxicity_IC50 mcf7
# [8] = MDA-MB-231, read-out: MDA-MBA-231 IC50
# [9] = MDA-MB-231, read-out: cytotoxicity_IC50 MDA
# [10] = EGFR IC50, lab report 01-11-2021, 10 compounds
# [11] = MCF-7, compared to untreated control
# [12] = MDA-MB-231, compared to control
structure (smiles),measurement,setting,value
"O=C(OCc1cc(=O)oc2cc(O)ccc12)c1ccccc1 [Compound 2, (7-Hydroxy-2-oxo-2H-chromen-4-yl)methyl benzoate]",IC50 at 48 h,in vitro,55 ± 2.68 µg/mL
same,"viability at 48 h, 0.4 ug",in vitro,88%
same,"viability at 48 h, 1.6 ug",in vitro,77.2%
same,"viability at 48 h, 6.25 ug",in vitro,66.5%
same,"viability at 48 h, 25 ug",in vitro,57.6%
same,"viability at 48 h, 100 ug",in vitro,44.4%
same,IC50,"MCF-7 [1]; MCF7, read-out: MCF-7 IC50",6000 ± 110 nM
same,IC50,MCF-7 [1]; [7],1.78 ± 0.11 µg/mL
same,% viability,"MCF-7 [1]; MCF7, 0.4ug",58.765%
same,% viability,"MCF-7 [1]; MCF7, 1.6ug",52.469%
same,% viability,"MCF-7 [1]; MCF7, 6.3ug",41.79%
same,% viability,"MCF-7 [1]; MCF7, 25ug",32.963%
same,% viability,"MCF-7 [1]; MCF7, 100ug",21.0494%
same,IC50,MDA-MB-231 [2]; [8],51900 ± 840 nM
same,IC50,MDA-MB-231 [2]; [9],15.4 ± 0.84 µg/mL
same,% viability,MDA-MB-231 [2]; 0.4ug (log conc. -0.41),75.87% and 75.875%
same,% viability,MDA-MB-231 [2]; 1.6ug (log conc. 0.19),65.56% and 65.561%
same,% viability,MDA-MB-231 [2]; 6.25ug (log conc. 0.8),57.358% and 57.36%
same,% viability,MDA-MB-231 [2]; 25ug (log conc. 1.4),47.527% and 47.53%
same,% viability,MDA-MB-231 [2]; 100ug (log conc. 2),36.5501% and 36.55%
same,IC50,MCF-10A,186000 ± 2680 nM
same,IC50,EGFR; [10],864 nM
same,IC50,EGFR; EGFR inhibition IC50,864 ± 54 nM
same,EGFR %inh,EGFR; conc 0.01 (unit not given),20%
same,EGFR %inh,EGFR; conc 0.1 (unit not given),41%
same,EGFR %inh,EGFR; conc 1 (unit not given),63%
same,EGFR %inh,EGFR; conc 10 (unit not given),84%
same,Percentage above Reference IC50 (potency relative to erlotinib),EGFR; reference Erlotinib,9.722%
same,IC50,aromatase (ARO); ARO inhibition IC50,216 ± 10 nM
same,IC50,"aromatase (ARO); Aromatase IC50, lab report 14-12-2020",216 nM
same,inhibition at 10 pg/mL,aromatase (ARO); read-out: %inh,37%
same,inhibition at 0.0001 µg/mL,aromatase (ARO); read-out: %inh,54%
same,inhibition at 0.001 µg/mL,aromatase (ARO); read-out: %inh,68%
same,inhibition at 0.01 µg/mL,aromatase (ARO); read-out: %inh,89%
"O=C(COc1ccc2c(COC(=O)c3ccccc3)cc(=O)oc2c1)c1ccc(Cl)cc1 [Compound 8, {7-[2-(4-Chlorophenyl)-2-oxoethoxy]-2-oxo-2H-chromen-4-yl}methyl benzoate]",Comment (cell cycle phase of growth arrest),MCF-7 [3]; MCF7,cell growth arrest@ G1/S
same,DNA content %G0-G1,MCF-7 [3]; MCF7,55.83%
same,DNA content %Pre-G1,MCF-7 [3]; MCF7,31.19%
same,DNA content %S,MCF-7 [3]; MCF7,39.85%
same,%G0-G1,"MCF-7 [3]; MCF-7, IC50 concentration",55.83^c ^ACD %
same,%Pre-G1,"MCF-7 [3]; MCF-7, IC50 concentration",31.19^ae ^AB %
same,%S,"MCF-7 [3]; MCF-7, IC50 concentration",39.85 ^CE %
same,arrest in S phase,MCF-7 [3]; [11],1.33 folds
same,increase of apoptotic cells in pre-G1 phase,MCF-7 [3]; [11],18.67 folds
same,Apoptosis Late,MCF-7 [4]; MCF7,19.66
same,Apoptosis Total,MCF-7 [4]; MCF7,31.19
same,% Apoptosis Early,MCF-7 [4]; MCF-7,4.94^abcA %
same,% Apoptosis Late,MCF-7 [4]; MCF-7,19.66^acA %
same,% Apoptosis Total,MCF-7 [4]; MCF-7,31.19% and 31.19^abc %
same,% Necrosis,MCF-7 [4]; MCF-7,6.59%
same,Bax Conc,Bax; MCF-7 cells,0.164±0.0056^acd ng/ml
same,Bcl-2 Conc,Bcl-2; MCF-7 cells,3.291±0.36^a ng/ml
same,Caspase-9 Conc.,Caspase-9; MCF-7 cells,30.39±2.56^abc ng/ml
same,IC50 at 48 h,in vitro,35.8 ± 1.74 µg/mL
same,"viability at 48 h, 0.4 ug",in vitro,84.7%
same,"viability at 48 h, 1.6 ug",in vitro,69.5%
same,"viability at 48 h, 6.25 ug",in vitro,63.2%
same,"viability at 48 h, 25 ug",in vitro,51.8%
same,"viability at 48 h, 100 ug",in vitro,43.6%
same,IC50,"MCF-7 [1]; MCF7, read-out: MCF-7 IC50",5800 ± 160 nM
same,IC50,MCF-7 [1]; [7],2.62 ± 0.16 µg/mL
same,% viability,"MCF-7 [1]; MCF7, 0.4ug",61.556%
same,% viability,"MCF-7 [1]; MCF7, 1.6ug",54.284%
same,% viability,"MCF-7 [1]; MCF7, 6.3ug",43.461%
same,% viability,"MCF-7 [1]; MCF7, 25ug",36.189%
same,% viability,"MCF-7 [1]; MCF7, 100ug",27.3957%
same,IC50,MDA-MB-231 [2]; [8],27500 ± 670 nM
same,IC50,MDA-MB-231 [2]; [9],12.3 ± 0.67 µg/mL
same,IC50,MCF-10A,79900 ± 1740 nM
same,IC50,EGFR; [10],1100 nM
same,IC50,EGFR; EGFR inhibition IC50,1100 ± 66 nM
same,EGFR %inh,EGFR; conc 10 (unit not given),83%
same,Percentage above Reference IC50 (potency relative to erlotinib),EGFR; reference Erlotinib,7.636%
"CC(=O)Oc1ccc2c(COC(=O)c3ccc(Cl)cc3)cc(=O)oc2c1 [Compound 14, (7-Acetoxy-2-oxo-2H-chromen-4-yl)methyl 4-chlorobenzoate]",%G0-G1,"MDA-MB-231 [5]; MDA-MB-231, IC50 concentration",54.69^ikBD %
same,%G2/M,"MDA-MB-231 [5]; MDA-MB-231, IC50 concentration",7.09^dACDE %
same,%Pre-G1,"MDA-MB-231 [5]; MDA-MB-231, IC50 concentration",41.02^iklmC %
same,%S,"MDA-MB-231 [5]; MDA-MB-231, IC50 concentration",38.22^ABE %
same,cell cycle arrest at S phase,MDA-MB-231 [5]; [12],1.38 folds
same,increase of apoptotic cells in pre-G1 phase,MDA-MB-231 [5]; [12],19.9 folds
same,% Apoptosis Early,MDA-MB-231 [6],23.61^ilmn %
same,% Apoptosis Late,MDA-MB-231 [6],13.22^hik %
same,% Apoptosis Total,MDA-MB-231 [6],41.02% and 41.02^gh %
same,% Necrosis,MDA-MB-231 [6],4.19%
same,Bax Conc,Bax; MDA-MB-231 cells,0.292±0.0106^ghi ng/ml
same,Bax FLD (fold versus control),Bax; MDA-MB-231 cells,4.9 folds
same,Bcl-2 Conc,Bcl-2; MDA-MB-231 cells,2.984±0.12^gh ng/ml
same,Bcl-2 FLD (fold versus control),Bcl-2; MDA-MB-231 cells,0.329 folds
same,Caspase-9 Conc.,Caspase-9; MDA-MB-231 cells,18.97±0.62^ghi ng/ml
same,Caspase-9 FLD (fold versus control),Caspase-9; MDA-MB-231 cells,4.37 folds
same,IC50 at 48 h,in vitro,97.9 ± 4.77 µg/mL
same,"viability at 48 h, 0.4 ug",in vitro,85.6%
same,"viability at 48 h, 1.6 ug",in vitro,77.6%
same,"viability at 48 h, 6.25 ug",in vitro,67.2%
same,"viability at 48 h, 25 ug",in vitro,59.5%
same,"viability at 48 h, 100 ug",in vitro,49.6%
same,IC50,"MCF-7 [1]; MCF7, read-out: MCF-7 IC50",285000 ± 6410 nM
same,IC50,MCF-7 [1]; [7],106 ± 6.41 µg/mL
same,% viability,"MCF-7 [1]; MCF7, 0.4ug",88.083%
same,% viability,"MCF-7 [1]; MCF7, 1.6ug",77.238%
same,% viability,"MCF-7 [1]; MCF7, 6.3ug",66.961%
same,% viability,"MCF-7 [1]; MCF7, 25ug",60.34%
same,% viability,"MCF-7 [1]; MCF7, 100ug",50.7566%
same,selectivity against MDA-MB-231 than MCF-7,MDA-MB-231 [2],150 times
same,IC50,MDA-MB-231 [2]; [8],1900 ± 30 nM
same,IC50,MDA-MB-231 [2]; [9],0.64 ± 0.03 µg/mL
same,% viability,MDA-MB-231 [2]; 0.4ug (log conc. -0.41),53.505%
same,% viability,MDA-MB-231 [2]; 1.6ug (log conc. 0.19),43.354%
same,% viability,MDA-MB-231 [2]; 6.25ug (log conc. 0.8),34.773%
same,% viability,MDA-MB-231 [2]; 25ug (log conc. 1.4),26.136%
same,% viability,MDA-MB-231 [2]; 100ug (log conc. 2),15.4795%
same,IC50,MCF-10A,263000 ± 4770 nM
same,IC50,"EGFR; EGFR IC50, lab report 01-09-2021, 04 compounds, reference Erlotinib",2440 nM
same,IC50,EGFR; EGFR inhibition IC50,2440 ± 51 nM
same,inhibition at 10 pg/mL,EGFR; read-out: EGFR %inh,18%
same,inhibition at 0.0001 µg/mL,EGFR; read-out: EGFR %inh,24%
same,inhibition at 0.001 µg/mL,EGFR; read-out: EGFR %inh,44%
same,inhibition at 0.01 µg/mL,EGFR; read-out: EGFR %inh,78%
same,Percentage above Reference IC50 (potency relative to erlotinib),EGFR; reference Erlotinib,5.942%
O=c1cc(Cn2ccnc2)c2ccc(Oc3ccc(F)c(F)c3)cc2o1 [II],IC50,ARO,47 nM
COc1ccc2c(Cc3ccccc3)c(-c3ccc(Cl)cc3)c(=O)oc2c1 [IV],IC50,ARO,80 nM
